Experimental data: US20120202794A1 (priority 2011, published 2012)

How the values were obtained:
HCV Replicon 1b = assay: HCV inhibition assay, HCV replicon 1b (Clone A or ET-lunet cells; RT-PCR or luciferase reporter); type: cell-based; details: Hepatitis C virus, 96 h, HCV replicon 1b; 4 days incubation; read-out: Replicon 1b potency EC90
Summary of the method: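 Inhibition read either as luciferase signal (ET replicon) or as HCV 5′-NTR RNA by RT-PCR relative to rRNA, % = (1−2^−ΔΔCt)×100, against DMSO controls, giving EC50 and EC90. Cells: Clone A or ET-lunet, seeded 1500 or 3000/well, exposed 4 days at 37 °C, 5% CO2, 0.5% DMSO.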

[1] = Cell cytotoxicity assay (MTS), CC90 as reported in Table 1, cell line not stated; type: cell-based; details: human; MTS assay; 8 days incubation; cell line not given
Summary of the method: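 MTS read-out (490 nm, 2 h dye step) after 8-day exposure at 37° C. Huh7, HepG2, BxPC3 were seeded at 2×10^3 and CEM at 5×10^3 cells/well, with compound serially diluted from 100 μM. CC90 comes from comparison with untreated control wells.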

Row | SMILES | EC90 (HCV Replicon 1b) [µM] | CC90 at 8 days [1] [µM]
1 | CC(C)C[C@H]1CN(C(=O)c2cc(-c3cc(F)cc(F)c3)on2)[C@@H](CC(C)C)C(=O)N1 [Compound 287, (3S,6S)-4-(5-(3,5-difluorophenyl)isoxazole-3-carbonyl)-3,6-diisobutylpiperazin-2-one] | 3.57 | > 10
2 | CC(C)C[C@H]1C(=O)N[C@@H](CC2CC2)CN1C(=O)c1cc(-c2ccc(F)cc2F)on1 [Compound 288, (3S,6S)-6-(cyclopropylmethyl)-4-(5-(2,4-difluorophenyl)isoxazole-3-carbonyl)-3-isobutylpiperazin-2-one] | 1.6 | > 10
3 | COc1ccc2c(c1)CCc1c(C(=O)N3C[C@H](CC(C)C)NC(=O)[C@@H]3CC(C)C)noc1-2 [Compound 289, (3S,6S)-3,6-diisobutyl-4-(7-methoxy-4,5-dihydronaphtho[2,1-d]isoxazole-3-carbonyl)piperazin-2-one] | 5.01 | > 10
4 | CCC[C@H]1CN(C(=O)c2noc(-c3ccc(F)cc3)n2)[C@@H](CC(C)C)C(=O)N1 [Compound 290, (3S,6S)-4-(5-(4-fluorophenyl)-1,2,4-oxadiazole-3-carbonyl)-3-isobutyl-6-propylpiperazin-2-one] | 0.14 | > 10
5 | CC(C)C[C@H]1C(=O)N[C@@H](C2CCCCC2)CN1C(=O)c1noc(-c2ccc(F)cc2)n1 [Compound 291, (3S,6S)-6-cyclohexyl-4-(5-(4-fluorophenyl)-1,2,4-oxadiazole-3-carbonyl)-3-isobutylpiperazin-2-one] | 0.33 | > 10
6 | CC(C)C[C@H]1CN(C(=O)c2noc(-c3ccc(F)cc3)n2)[C@@H](CC(C)C)C(=O)N1 [Compound 293, (3S,6S)-4-(5-(4-Fluorophenyl)-1,2,4-oxadiazole-3-carbonyl)-3,6-diisobutylpiperazin-2-one] | 0.27 | > 10
7 | CC(C)C[C@H]1C(=O)N[C@@H](C2CCCC2)CN1C(=O)c1noc(-c2ccc(F)cc2)n1 [Compound 294, (3S,6S)-6-Cyclopentyl-4-(5-(4-fluorophenyl)-1,2,4-oxadiazole-3-carbonyl)-3-isobutylpiperazin-2-one] | 0.35 | > 10
8 | CC(C)C[C@H]1C(=O)N[C@@H](C(C)C)CN1C(=O)c1noc(-c2ccc(F)cc2)n1 [Compound 295, (3S,6S)-4-(5-(4-Fluorophenyl)-1,2,4-oxadiazole-3-carbonyl)-3-isobutyl-6-isopropylpiperazin-2-one] | 0.32 | > 10
9 | CSC[C@H]1CN(C(=O)c2noc(-c3ccc(F)cc3)n2)[C@@H](CC(C)C)C(=O)N1 [Compound 296, (3S,6R)-4-(5-(4-Fluorophenyl)-1,2,4-oxadiazole-3-carbonyl)-3-isobutyl-6-((methylthio)methyl)piperazin-2-one] | 1.54 | > 10
10 | CC(C)C[C@H]1C(=O)N[C@@H](CC2CC2)CN1C(=O)[C@@H]1C[C@H]1c1ccc(F)cc1 [Compound 297, (3S,6S)-4-[(1R,2R)-2-(4-Fluoro-phenyl)-cyclopropanecarbonyl]-6-cyclopropyl-methyl-3-isobutyl-piperazin-2-one] | 0.41 | > 10
11 | CSC[C@H]1CN(C(=O)[C@@H]2C[C@H]2c2ccc(F)cc2)[C@@H](CC(C)C)C(=O)N1 [Compound 299, (3S,6R)-4-((1R,2R)-2-(4-fluorophenyl)cyclopropanecarbonyl)-3-isobutyl-6-((methylthio)methyl)piperazin-2-one] | 0.63 | > 10
12 | CSC[C@H]1CN(C(=O)[C@@H]2C[C@H]2c2ccc(Cl)cc2)[C@@H](CC(C)C)C(=O)N1 [Compound 300, (3S,6R)-4-((1R,2R)-2-(4-Chlorophenyl)cyclopropanecarbonyl)-3-isobutyl-6-((methylthio)methyl)piperazin-2-one] | 0.78 | > 10
13 | CC(C)C[C@H]1CN(C(=O)c2noc3c2CCc2cc(F)ccc2-3)[C@@H](CC(C)C)C(=O)N1 [Compound 302, (3S,6S)-3,6-Diisobutyl-4-(7-fluoro-4,5-dihydronaphtho[2,1-d]isoxazole-3-carbonyl)piperazin-2-one] | 1.41 | > 10
14 | CCC[C@H]1CN(C(=O)c2noc3c2CCc2cc(F)ccc2-3)[C@@H](CC(C)C)C(=O)N1 [Compound 304, (3S,6S)-4-(7-fluoro-4,5-dihydronaphtho[2,1-d]isoxazole-3-carbonyl)-3-isobutyl-6-propylpiperazin-2-one] | 0.64 | > 10
15 | CC(C)C[C@H]1C(=O)N[C@@H](C2CCCC2)CN1C(=O)c1noc2c1CCc1cc(F)ccc1-2 [Compound 305, (3S,6S)-6-cyclopentyl-4-(7-fluoro-4,5-dihydronaphtho[2,1-d]isoxazole-3-carbonyl)-3-isobutylpiperazin-2-one] | 1.61 | > 10
16 | CC(C)C[C@H]1C(=O)N[C@@H](c2ccccc2)CN1C(=O)c1noc2c1CCc1cc(F)ccc1-2 [Compound 306, (3S,6S)-4-(7-fluoro-4,5-dihydronaphtho[2,1-d]isoxazole-3-carbonyl)-3-isobutyl-6-phenylpiperazin-2-one] | 0.89 | > 10
17 | CC(C)C[C@H]1CN(C(=O)c2cc3c(s2)-c2ccccc2OC3)[C@@H](CC(C)C)C(=O)N1 [Compound 307, (3S,6S)-3,6-diisobutyl-4-(4H-thieno[3,2-c]chromene-2-carbonyl)piperazin-2-one] | 4.71 | > 10
18 | CC(C)C[C@H]1CN(C(=O)c2cc3c(s2)-c2cc(F)ccc2OC3)[C@@H](CC(C)C)C(=O)N1 [Compound 308, (3S,6S)-4-(8-fluoro-4H-thieno[3,2-c]chromene-2-carbonyl)-3,6-diisobutylpiperazin-2-one] | 6.48 | > 10
19 | CC(C)C[C@H]1C(=O)N[C@@H](C(C)C)CN1C(=O)[C@@H]1C[C@H]1c1ccc(F)c(F)c1 [Compound 309, (3S,6S)-4-[(1R,2R)-2-(3,4-Difluoro-phenyl)-cyclopropanecarbonyl]-3-isobutyl-6-isopropyl-piperazin-2-one] | 0.78 | > 10
20 | CC(C)C[C@H]1C(=O)N[C@@H](C2CCCC2)CN1C(=O)[C@@H]1C[C@H]1c1ccc(C(C)(C)C)cc1 [Compound 310, (3S,6S)-4-((1R,2R)-2-(4-(tert-butyl)phenyl)cyclopropanecarbonyl)-6-cyclopentyl-3-isobutylpiperazin-2-one] | 0.95 | > 10
21 | CC(C)C[C@H]1C(=O)N[C@@H](C(C)C)CN1C(=O)[C@@H]1C[C@H]1c1ccc(C(C)(C)C)cc1 [Compound 311, (3S,6S)-4-((1R,2R)-2-(4-(tert-butyl)phenyl)cyclopropanecarbonyl)-3-isobutyl-6-isopropylpiperazin-2-one] | 1.86 | > 10
22 | CC(C)C[C@H]1C(=O)N[C@@H](c2ccccc2)CN1C(=O)[C@@H]1C[C@H]1c1ccc(C(C)(C)C)cc1 [Compound 312, (3S,6S)-4-((1R,2R)-2-(4-(tert-butyl)phenyl)cyclopropanecarbonyl)-3-isobutyl-6-phenylpiperazin-2-one] | 1.13 | > 10
23 | CCC[C@H]1CN(C(=O)c2cc(-c3ccc(Cl)cc3)no2)[C@@H](CC(C)C)C(=O)N1 [Compound 313, (3S,6S)-4-(3-(4-chlorophenyl)isoxazole-5-carbonyl)-3-isobutyl-6-propylpiperazin-2-one] | 0.39 | > 10
24 | CC(C)C[C@H]1C(=O)N[C@@H](C2CCCC2)CN1C(=O)c1cc(-c2ccc(Cl)cc2)no1 [Compound 314, (3S,6S)-4-(3-(4-chlorophenyl)isoxazole-5-carbonyl)-6-cyclopentyl-3-isobutyl-piperazin-2-one] | 0.51 | > 10
25 | CC(C)C[C@H]1C(=O)N[C@@H](C2CCCCC2)CN1C(=O)c1cc(-c2ccc(Cl)cc2)no1 [Compound 315, (3S,6S)-4-(3-(4-chlorophenyl)isoxazole-5-carbonyl)-6-cyclohexyl-3-isobutylpiperazin-2-one] | 0.7 | > 10
26 | CC(C)C[C@H]1C(=O)N[C@@H](c2ccccc2)CN1C(=O)c1cc(-c2ccc(Cl)cc2)no1 [Compound 316, (3S,6S)-4-(3-(4-chlorophenyl)isoxazole-5-carbonyl)-3-isobutyl-6-phenylpiperazin-2-one] | 0.28 | > 10
27 | CC(C)CC1=CN(C(=O)c2cc(-c3ccc(F)cc3)on2)[C@@H](CC(C)C)C(=O)N1 [Compound 317, (S)-4-(5-(4-Fluorophenyl)isoxazole-3-carbonyl)-3,6-diisobutyl-3,4-dihydro-pyrazin-2(1H)-one] | 0.28 | > 10
28 | CC(C)C[C@H]1C(=O)N(C)[C@@H](c2ccccc2)CN1C(=O)c1cc(-c2ccc(F)cc2)on1 [Compound 321, (3S,6S)-4-(5-(4-fluorophenyl)isoxazole-3-carbonyl)-3-isobutyl-1-methyl-6-phenylpiperazin-2-one] | 6.45 | > 10
29 | CCN1C(=O)[C@H](CC(C)C)N(C(=O)c2cc(-c3ccc(F)cc3)on2)C[C@@H]1c1ccccc1 [Compound 322, (3S,6S)-1-ethyl-4-(5-(4-fluorophenyl)isoxazole-3-carbonyl)-3-isobutyl-6-phenylpiperazin-2-one] | > 10 | > 10
30 | CCCN1C(=O)[C@H](CC(C)C)N(C(=O)c2cc(-c3ccc(F)cc3)on2)C[C@@H]1c1ccccc1 [Compound 323, (3S,6S)-4-(5-(4-fluorophenyl)isoxazole-3-carbonyl)-3-isobutyl-6-phenyl-1-propylpiperazin-2-one] | > 10 | > 10
